Laboratory results: patent US20070128217A1 (priority 2003, published 2007)

Experiments:
[1] = tested on: rabbit serum obtained by immunizing a rabbit with the SARS-CoV strain Frankfurt 1; format: binding; set-up: Binding of a rabbit serum to linear peptides / Binding of a rabbit serum to looped peptides / Rabbit serum linear peptides / Rabbit serum looped peptides / Binding of a rabbit serum to linear peptides of protein N of SARS-CoV Urbani (Rabbit serum linear peptides) / Binding of a rabbit serum to looped/cyclic peptides of protein N of SARS-CoV Urbani (Rabbit serum looped peptides): unit not given here
[2] = tested on: antibodies in sera from SARS patients (sera 1a, 1b, 2, 6, 37, 62, London, SARS-yellow, SARS-green); format: binding, human; set-up: Binding of serum 6 to linear peptides of protein X1 of SARS-CoV Urbani / Binding of serum 37 to linear peptides of protein X1 of SARS-CoV Urbani / Binding of serum 6 to looped/cyclic peptide (PEPSCAN-ELISA) / Binding of serum 37 to looped/cyclic peptide (PEPSCAN-ELISA) / Binding of serum 37 to looped/cyclic peptides of protein X1 of SARS-CoV Urbani / Binding of serum 6 to linear peptides of protein X2 / Binding of serum 37 to linear peptides of protein X2 / Binding of serum 37 to looped/cyclic peptides of protein X2 of SARS-CoV Urbani / Binding of serum 6 to linear peptides of protein M of SARS-CoV Urbani / Binding of serum 37 to linear peptides of protein M of SARS-CoV Urbani / Binding of serum 6 to looped/cyclic peptides of protein M of SARS-CoV Urbani / Binding of serum 37 to looped/cyclic peptides of protein M of SARS-CoV Urbani / Binding of serum 6 to linear peptides of protein X3 of SARS-CoV Urbani / Binding of serum 37 to linear peptides of protein X3 of SARS-CoV Urbani / Binding of serum 37 to looped/cyclic peptides of protein X3 of SARS-CoV Urbani / Binding of serum 6 to linear peptides of protein X4 of SARS-CoV Urbani / Binding of serum 37 to linear peptides of protein X4 of SARS-CoV Urbani / Binding of serum 37 to looped/cyclic peptides of protein X4 of SARS-CoV Urbani / Binding of serum 6 to linear peptides of protein X5 of SARS-CoV Urbani / Binding of serum 37 to linear peptides of protein X5 of SARS-CoV Urbani / Binding of serum 37 to looped/cyclic peptides of protein X5 of SARS-CoV Urbani / Binding of serum 6 to linear peptides of protein N of SARS-CoV Urbani / Binding of serum 37 to linear peptides of protein N of SARS-CoV Urbani / Binding of serum 6 to linear peptide (PEPSCAN-ELISA) / Binding of serum 1a to looped/cyclic peptides of protein N of SARS-CoV Urbani / Binding of serum 1b to looped/cyclic peptides of protein N of SARS-CoV Urbani / Binding of serum 2 to looped/cyclic peptides of protein N of SARS-CoV Urbani / Binding of serum 6 to looped/cyclic peptides of protein N of SARS-CoV Urbani / Binding of serum 37 to looped/cyclic peptides of protein N of SARS-CoV Urbani / Binding of serum 62 to looped/cyclic peptides of protein N of SARS-CoV Urbani / Binding of serum London to looped/cyclic peptides of protein N of SARS-CoV Urbani / Binding of serum SARS-green to looped/cyclic peptides of protein N of SARS-CoV Urbani: unit not given here
[3] = tested on: control sera (pooled serum of ten healthy LUMC hospital workers; commercial negative donor pooled serum from the Dutch bloodbank); format: binding, human; set-up: Binding of Control serum LUMC to linear peptides / Binding of Control serum Blood-bank to linear peptides / Binding of Control serum LUMC to looped peptides / Binding of Control Serum Blood-Bank to Looped peptides / Binding of Control serum LUMC to linear peptides of the protein M of SARS-CoV Urbani / Binding of Control serum Blood-bank to linear peptides of the protein M of SARS-CoV Urbani / Binding of Control serum LUMC to looped peptides of the protein M of SARS-CoV Urbani / Binding of Control Serum Blood-Bank to Looped peptides of the protein M of SARS-CoV Urbani: unit not given here

Row | Sequence | Binding of Control Serum Blood-Bank to Looped peptides [3] | Binding of Control serum Blood-bank to linear peptides [3] | Binding of Control serum LUMC to linear peptides [3] | Binding of Control serum LUMC to looped peptides [3] | Binding of a rabbit serum to linear peptides [1] | Binding of a rabbit serum to looped peptides [1] | Binding of serum 1a to looped/cyclic peptide (PEPSCAN-ELISA) [2] | Binding of serum 1b to looped/cyclic peptide (PEPSCAN-ELISA) [2] | Binding of serum 2 to looped/cyclic peptide (PEPSCAN-ELISA) [2] | Binding of serum 6 to looped/cyclic peptide (PEPSCAN-ELISA) [2] | Binding of serum 37 to looped/cyclic peptide (PEPSCAN-ELISA) [2] | Binding of serum 62 to looped/cyclic peptide (PEPSCAN-ELISA) [2] | Binding of serum London to looped/cyclic peptide (PEPSCAN-ELISA) [2] | Binding of serum SARS-green to looped/cyclic peptide (PEPSCAN-ELISA) [2] | Binding of serum SARS-yellow to looped/cyclic peptide (PEPSCAN-ELISA) [2] | further results
1 | FALTCTSTHFAFACA | 0.7 | 0.6 | 0.6 | 0.6 |  |  |  |  |  |  |  |  |  |  |  | Rabbit serum linear peptides [1]: 0.6; Rabbit serum looped peptides [1]: 0.4; Binding of serum 1a to linear peptides of protein X4 of SARS-CoV Urbani [2]: 0.7; Binding of serum 1a to looped/cyclic peptides of protein X4 of SARS-CoV Urbani [2]: 0.8; Binding of serum 1b to linear peptides of protein X4 of SARS-CoV Urbani [2]: 0.5; Binding of serum 1b to looped/cyclic peptides of protein X4 of SARS-CoV Urbani [2]: 0.5; Binding of serum 2 to linear peptides of protein X4 of SARS-CoV Urbani [2]: 0.4; Binding of serum 2 to looped/cyclic peptides of protein X4 of SARS-CoV Urbani [2]: 0.7; Binding of serum 6 to linear peptides of protein X4 of SARS-CoV Urbani [2]: 0.5; Binding of serum 6 to looped/cyclic peptides of protein X4 of SARS-CoV Urbani [2]: 0.5; Binding of serum 37 to linear peptides of protein X4 of SARS-CoV Urbani [2]: 0.7; Binding of serum 37 to looped/cyclic peptides of protein X4 of SARS-CoV Urbani [2]: 0.6; Binding of serum 62 to linear peptides of protein X4 of SARS-CoV Urbani [2]: 0.7; Binding of serum 62 to looped/cyclic peptides of protein X4 of SARS-CoV Urbani [2]: 0.7; Binding of serum London to linear peptides of protein X4 of SARS-CoV Urbani [2]: 0.7; Binding of serum London to looped/cyclic peptides of protein X4 of SARS-CoV Urbani [2]: 0.3; Binding of serum SARS-green to linear peptides of protein X4 of SARS-CoV Urbani [2]: 0.5; Binding of serum SARS-green to looped/cyclic peptides of protein X4 of SARS-CoV Urbani [2]: 0.5; Binding of serum SARS-yellow to linear peptides of protein X4 of SARS-CoV Urbani [2]: 0.6; Binding of serum SARS-yellow to looped/cyclic peptides of protein X4 of SARS-CoV Urbani [2]: 0.7
2 | LYDANYFVCWHTHNY | 0.7 | 0.8 | 0.7 | 0.5 | 0.1 | 0.5 | 0.6 | 0.5 | 0.4 | 0.4 | 0.6 | 0.6 | 0.2 | 0.3 | 0.3 | Binding of serum 1a to linear peptides of protein X1 of SARS-CoV Urbani [2]: 0.9; Binding of serum 1b to linear peptides of protein X1 of SARS-CoV Urbani [2]: 0.8; Binding of serum 2 to linear peptides of protein X1 of SARS-CoV Urbani [2]: 0.5; Binding of serum 6 to linear peptides of protein X1 of SARS-CoV Urbani [2]: 0.7; Binding of serum 37 to linear peptides of protein X1 of SARS-CoV Urbani [2]: 0.8; Binding of serum 62 to linear peptides of protein X1 of SARS-CoV Urbani [2]: 0.8; Binding of serum London to linear peptides of protein X1 of SARS-CoV Urbani [2]: 0.4; Binding of serum SARS-green to linear peptides of protein X1 of SARS-CoV Urbani [2]: 0.4; Binding of serum SARS-yellow to linear peptides of protein X1 of SARS-CoV Urbani [2]: 0.5
3 | CRIIMRCWLCWKCKS | 0.7 | 0.4 | 0.3 | 0.7 | 0.1 | 0.7 | 0.5 | 0.4 | 0.5 | 0.5 | 0.6 | 0.6 | 0.4 | 0.2 | 0.4 | Recognition of the peptide by sera of SARS-CoV infected individuals, and form (linear, looped/cyclic) in which it is recognized [2]: recognized in linear form
